Reference: BigSolDB 2.1

CCCc1nc2c(C)cc(-c3nc4ccccc4n3C)cc2n1Cc1ccc(-c2ccccc2C(=O)O)cc1
Details | solubility (mole fraction)
in acetone, 278.55 K | 4.42e-05
in acetone, 287.45 K | 5.71e-05
in acetone, 294.55 K | 7.76e-05
in acetone, 303.85 K | 9.45e-05
in acetone, 308.75 K | 0.000112
in acetone, 316.25 K | 0.000141
in acetone, 325.75 K | 0.000193
in benzene, 278.55 K | 6.95e-05
in benzene, 288.45 K | 0.000111
in benzene, 299.85 K | 0.000163
in benzene, 307.25 K | 0.000236
in benzene, 316.15 K | 0.000289
in benzene, 324.35 K | 0.000361
in benzene, 333.35 K | 0.000488
in chloroform, 278.75 K | 0.00533
in chloroform, 289.45 K | 0.00624
in chloroform, 296.95 K | 0.00701
in chloroform, 298.15 K | 0.00725
in chloroform, 303.95 K | 0.00747
in chloroform, 308.35 K | 0.00771
in chloroform, 313.15 K | 0.00799
in dichloromethane, 278.35 K | 0.0015
in dichloromethane, 286.55 K | 0.00177
in dichloromethane, 293.95 K | 0.00205
in dichloromethane, 298.05 K | 0.00216
in dichloromethane, 305.25 K | 0.00246
in dichloromethane, 308.35 K | 0.00261
in dichloromethane, 311.75 K | 0.00272
in ethanol, 277.85 K | 3.06e-05
in ethanol, 288.45 K | 4.57e-05
in ethanol, 298.45 K | 6.33e-05
in ethanol, 308.35 K | 9e-05
in ethanol, 313.45 K | 0.000117
in ethanol, 329.75 K | 0.000219
in ethanol, 333.65 K | 0.000255
in ethyl acetate, 283.65 K | 2.47e-05
in ethyl acetate, 293.35 K | 4.17e-05
in ethyl acetate, 303.65 K | 5.9e-05
in ethyl acetate, 305.35 K | 6.26e-05
in ethyl acetate, 317.95 K | 8.83e-05
in ethyl acetate, 329.45 K | 0.000123
in ethyl acetate, 333.65 K | 0.000148
in isopropanol, 288.45 K | 1.55e-05
in isopropanol, 298.05 K | 2.77e-05
in isopropanol, 309.55 K | 4.1e-05
in isopropanol, 316.55 K | 5.62e-05
in isopropanol, 321.55 K | 7.41e-05
in isopropanol, 329.55 K | 0.000106
in isopropanol, 338.35 K | 0.000157
in methanol, 278.45 K | 6.03e-05
in methanol, 288.55 K | 8.9e-05
in methanol, 299.85 K | 0.000132
in methanol, 307.35 K | 0.000153
in methanol, 313.25 K | 0.000186
in methanol, 324.85 K | 0.000271
in methanol, 330.05 K | 0.000315
in toluene, 278.65 K | 3.55e-05
in toluene, 288.45 K | 6.08e-05
in toluene, 300.05 K | 8.4e-05
in toluene, 306.35 K | 0.000125
in toluene, 316.75 K | 0.000169
in toluene, 325.85 K | 0.000225
in toluene, 334.55 K | 0.000307
